In US11970474B2, “Substituted benzodiazoles and use thereof in therapy” (THOMAS HELLEDAYS STIFTELSE FÖR MEDICINSK FORSKNING, priority 2018, dated 2024):
pIC50: −log10 of the molar value.

Target: OGG1 (Homo sapiens (Human), UniProt O15527)
Experiment: In vitro OGG1 activity assay
Format: biochemical
Conditions: 800 pM OGG1 enzyme, 2 nM human APEX1, 10 nM 8-oxoA:C substrate
Summary of the method: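 Read-out is fluorescein fluorescence, with compounds in DMSO added first, then enzyme and substrate. OGG1 excises its substrate base from a quenched fluorophore-labelled duplex, and surplus APEX1 cuts the resulting apurinic site. The duplex then melts and fluorescence rises in proportion to glycosylase activity.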

Chain of OGG1 (O15527 whole entry): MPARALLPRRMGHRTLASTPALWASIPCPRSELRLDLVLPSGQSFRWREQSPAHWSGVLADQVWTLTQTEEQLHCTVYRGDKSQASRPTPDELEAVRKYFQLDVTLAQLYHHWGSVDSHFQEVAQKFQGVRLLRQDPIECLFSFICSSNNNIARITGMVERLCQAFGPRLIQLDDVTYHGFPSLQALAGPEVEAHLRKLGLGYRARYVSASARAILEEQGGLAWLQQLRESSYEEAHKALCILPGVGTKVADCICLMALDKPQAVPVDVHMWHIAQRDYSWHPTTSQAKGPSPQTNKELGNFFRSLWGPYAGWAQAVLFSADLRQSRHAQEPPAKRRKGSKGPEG

Structure (SMILES) | pIC50
Cc1cc(NC(=O)[C@H]2CC[C@@H](n3c(=O)[nH]c4ccc(F)cc43)CC2)ccc1O [Example 220, Cis-4-(6-fluoro-2-oxo-2,3-dihydro-1H-1,3-benzodiazol-1-yl)-N-(4-hydroxy-3-methylphenyl)cyclohexane-1-carboxamide] | 5.06
Cc1ccc(NC(=O)[C@H]2CC[C@@H](n3c(=O)[nH]c4c(Br)cccc43)CC2)c(O)c1 [Example 222, Cis-4-(4-bromo-2-oxo-2,3-dihydro-1H-1,3-benzodiazol-1-yl)-N-(2-hydroxy-4-methylphenyl)cyclohexane-1-carboxamide] | 6.46
Cc1cc(N)c(NC(=O)[C@H]2CC[C@@H](n3c(=O)[nH]c4c(Br)cccc43)CC2)cc1C [Example 223, Cis-N-(2-amino-4,5-dimethylphenyl)-4-(4-bromo-2-oxo-2,3-dihydro-1H-1,3-benzodiazol-1-yl)cyclohexane-1-carboxamide] | 5.78
NC(=O)c1ccc(NC(=O)[C@H]2CC[C@@H](n3c(=O)[nH]c4c(Br)cccc43)CC2)cc1 [Example 224, 4-[cis-4-(4-bromo-2-oxo-2,3-dihydro-1H-1,3-benzodiazol-1-yl)cyclohexaneamido]benzamide] | 5.44
O=c1[nH]c2c(Br)cccc2n1[C@H]1CC[C@@H](C(=O)Nc2cccc(CO)c2)CC1 [Example 231, Cis-4-(4-bromo-2-oxo-2,3-dihydro-1H-1,3-benzodiazol-1-yl)-N-[3-(hydroxymethyl)phenyl]cyclohexane-1-carboxamide] | 5.09
COc1cc(NC(=O)[C@H]2CC[C@@H](n3c(=O)[nH]c4ncccc43)CC2)ccc1C [Example 232, Cis-N-(3-methoxy-4-methylphenyl)-4-{2-oxo-1H,2H,3H-imidazo[4,5-b]pyridin-1-yl}cyclohexane-1-carboxamide] | 6.96
COc1ccc(NC(=O)[C@H]2CC[C@@H](n3c(=O)[nH]c4ncccc43)CC2)cc1C [Example 233, Cis-N-(4-methoxy-3-methylphenyl)-4-{2-oxo-1H,2H,3H-imidazo[4,5-b]pyridin-1-yl}cyclohexane-1-carboxamide] | 7.32
COc1ccc(NC(=O)[C@H]2CC[C@@H](n3c(=O)[nH]c4ncccc43)CC2)cc1 [Example 234, Cis-N-(4-methoxyphenyl)-4-{2-oxo-1H,2H,3H-imidazo[4,5-b]pyridin-1-yl}cyclohexane-1-carboxamide] | 6.24
COc1ncc(NC(=O)[C@H]2CC[C@@H](n3c(=O)[nH]c4ncccc43)CC2)cc1C [Example 235, Cis-N-(6-methoxy-5-methylpyridin-3-yl)-4-{2-oxo-1H,2H,3H-imidazo[4,5-b]pyridin-1-yl}cyclohexane-1-carboxamide] | 5.84
COc1cc(NC(=O)[C@H]2CC[C@@H](n3c(=O)[nH]c4cnccc43)CC2)ccc1C [Example 236, Cis-N-(3-methoxy-4-methylphenyl)-4-{2-oxo-1H,2H,3H-imidazo[4,5-c]pyridin-1-yl}cyclohexane-1-carboxamide] | 6.71
COc1cc(NC(=O)[C@H]2CC[C@@H](n3c(=O)[nH]c4c(S(=O)(=O)CC(=O)O)cccc43)CC2)ccc1C [Example 239, 2-({2-Oxo-1-[cis-4-[(3-methoxy-4-methylphenyl)carbamoyl]cyclohexyl]-2,3-dihydro-1H-1,3-benzodiazol-4-yl}sulfonyl)acetic acid] | 7.30
COc1cc(NC(=O)[C@H]2CC[C@@H](n3c(=O)[nH]c4c(N5CCOCC5)cccc43)CC2)ccc1C [Example 241, Cis-N-(3-methoxy-4-methylphenyl)-4-[4-(morpholin-4-yl)-2-oxo-2,3-dihydro-1H-1,3-benzodiazol-1-yl]cyclohexane-1-carboxamide] | 6.02
COc1cc(NC(=O)[C@H]2CC[C@@H](n3c(=O)[nH]c4c(OCC(=O)O)cccc43)CC2)ccc1C [Example 242, 2-({2-Oxo-1-[cis-4-[(3-methoxy-4-methylphenyl)carbamoyl]cyclohexyl]-2,3-dihydro-1H-1,3-benzodiazol-4-yl}oxy)acetic acid] | 6.90
COCCOc1cccc2c1[nH]c(=O)n2[C@H]1CC[C@@H](C(=O)Nc2ccc3cc[nH]c3c2)CC1 [Example 246, Cis-N-(1H-indol-6-yl)-4-[4-(2-methoxyethoxy)-2-oxo-2,3-dihydro-1H-1,3-benzodiazol-1-yl]cyclohexane-1-carboxamide] | 5.44
COc1cc(NC(=O)[C@H]2CC[C@@H](n3c(=O)[nH]c4c(C(=O)NCCN)cccc43)CC2)ccc1C [Example 247, N-(2-Aminoethyl)-2-oxo-1-[cis-4-[(3-methoxy-4-methylphenyl)carbamoyl]cyclohexyl]-2,3-dihydro-1H-1,3-benzodiazole-4-carboxamide] | 9.21
COc1cc(NC(=O)[C@H]2CC[C@@H](n3c(=O)[nH]c4c(C(=O)NCC(O)CO)cccc43)CC2)ccc1C (stereo partly drawn) [Example 248, N-(2,3-Dihydroxypropyl)-2-oxo-1-[cis-4-[(3-methoxy-4-methylphenyl)carbamoyl]cyclohexyl]-2,3-dihydro-1H-1,3-benzodiazole-4-carboxamide] | 8.17
COc1cc(NC(=O)[C@H]2CC[C@@H](n3c(=O)[nH]c4c(C(=O)NCCNS(C)(=O)=O)cccc43)CC2)ccc1C [Example 251, N-(2-Methanesulfonamidoethyl)-2-oxo-1-[cis-4-[(3-methoxy-4-methylphenyl)carbamoyl]cyclohexyl]-2,3-dihydro-1H-1,3-benzodiazole-4-carboxamide] | 8.37
COc1cc(NC(=O)[C@H]2CC[C@@H](n3c(=O)[nH]c4c(C(=O)NCCN5CCNCC5)cccc43)CC2)ccc1C [Example 252, 2-Oxo-N-[2-(piperazin-1-yl)ethyl]-1-[cis-4-[(3-methoxy-4-methylphenyl)carbamoyl]cyclohexyl]-2,3-dihydro-1H-1,3-benzodiazole-4-carboxamide] | 8.40
COc1cc(NC(=O)[C@H]2CC[C@@H](n3c(=O)[nH]c4c(C(=O)NCCNC(C)=O)cccc43)CC2)ccc1C [Example 253, Cis-4-{4-[(2-acetamidoethyl)carbamoyl]-2-oxo-2,3-dihydro-1H-1,3-benzodiazol-1-yl}-N-(3-methoxy-4-methylphenyl)cyclohexane-1-carboxamide] | 8.17
COc1cc(NC(=O)[C@H]2CC[C@@H](n3c(=O)[nH]c4c(C(=O)NCC5CCCN5)cccc43)CC2)ccc1C (stereo partly drawn) [Example 254, 2-Oxo-N-[(pyrrolidin-2-yl)methyl]-1-[cis-4-[(3-methoxy-4-methylphenyl)carbamoyl]cyclohexyl]-2,3-dihydro-1H-1,3-benzodiazole-4-carboxamide] | 9.68
COc1cc(NC(=O)[C@H]2CC[C@@H](n3c(=O)[nH]c4c(NC(=O)CN)cccc43)CC2)ccc1C [Example 255, Cis-4-[4-(2-aminoacetamido)-2-oxo-2,3-dihydro-1H-1,3-benzodiazol-1-yl]-N-(3-methoxy-4-methylphenyl)cyclohexane-1-carboxamide] | 7.51
COc1cc(NC(=O)[C@H]2CC[C@@H](n3c(=O)[nH]c4cc(CN)ccc43)CC2)ccc1C [Example 256, Cis-4-[5-(aminomethyl)-2-oxo-2,3-dihydro-1H-1,3-benzodiazol-1-yl]-N-(3-methoxy-4-methylphenyl)cyclohexane-1-carboxamide] | 5.57
